Measurements published in US11304916B2 (priority 2019, dated 2022).
“Also recorded” adds a separate entry of the source. Where two headings read alike, the source gives them in different places.

What was measured:
[1] = test system: transport of STx2B to the Golgi apparatus; type: cell-based, human
[2] = test system: pH of endolysosomal compartments; type: cell-based, human
STx2-induced cell death = type: cell-based, human
[3] = test system: recruitment of retromer component Vps26 to early endosomes; type: cell-based, human
STx1-induced cell death = type: cell-based, human
LC3-positive punctae = type: cell-based, human
[4] = test system: transport of STx1 B-subunit (STx1B) to the Golgi; type: cell-based, human
HeLa cells = conditions: 10 μM
lethal STx2 toxicosis = conditions: mouse, in vivo
lethal STx1 toxicosis [5] = conditions: mouse, in vivo
[6] = test system: transport of STx1 B-subunit (STx1B) to the Golgi; conditions: cited from earlier work
lethal STx1 toxicosis [7] = conditions: mouse, in vivo; cited from earlier work
[8] = test system: transport of STx2B to the Golgi apparatus; conditions: cited from earlier work

CO/C1=C\C(C)=C\[C@@H](C)[C@@H](O)[C@@H](C)C/C(C)=C/C=C/[C@H](OC)[C@@H]([C@@H](C)[C@@H](O)[C@H](C)[C@@]2(O)C[C@@H](O)[C@H](C)[C@@H](C(C)C)O2)OC1=O [bafilomycin A1]
STx2B transport after short treatment [1]: did not have an effect; also recorded: There were no differences between groups
Transport of STx2B to the Golgi apparatus [1]: robustly inhibited the transport of STx2B to the Golgi apparatus
Change in endolysosomal pH (Lysosensor signal) [2]: a similar effect was observed
Morphology of endolysosomal compartments [2]: morphological differences were apparent

CCN(CC)CCCC(C)Nc1ccnc2cc(Cl)ccc12 (stereo not drawn) [chloroquine]
Transport of STx2B to the Golgi apparatus [1]: inhibitors of STx2B transport

OCCOc1ccc(/C(=C(/CCCl)c2ccccc2)c2ccccc2)cc1 [ospemifene]
Transport of STx2B to the Golgi (data not shown) [1]: did not
Protection against STx2-induced cell death relative to tamoxifen (STx2-induced cell death): failed to protect all together
Recruitment of Vps26 to early endosomes [3]: did not

CC/C(=C(\c1ccccc1)c1ccc(OCCN(C)C)cc1)c1ccccc1 [tamoxifen, (Z)-2-(4-(1,2-diphenyl-1-butenyl)phenoxy)-N,N-dimethylethan-1-amine]
Fate of STx2B in treated cells [1]: the toxin failed to traffic to the Golgi and instead was rerouted to Rab7-positive late endosomes and degraded
STx2B transport after short treatment [1]: did not have an effect; also recorded: There were no differences between groups
Transport of STx2B to the Golgi apparatus [1]: inhibitors of STx2B transport
Inhibitory effect on STx2B transport compared with chloroquine ([1]; 24 h): had a greater inhibitory effect
Protection against STx1-induced cell death (STx1-induced cell death): ~50 fold
LC3-positive punctae (LC3-positive punctae): elevated
Transport of STx1B to the Golgi and STx1B degradation [4]: inhibited the transport of STx1 B-subunit (STx1B) to the Golgi and induced degradation of STx1B
Lowest tamoxifen dose at which protection was evident (STx2-induced cell death): 2.5 µM
Protection against STx2-induced cell death (STx2-induced cell death): ~200 fold
Positioning of early endosomes [3]: gained a perinuclear prominence
Recruitment of Vps26 to early endosomes ([3]; 10 μM): enhanced
Change in endolysosomal pH (Lysosensor signal) [2]: an increase evident at early time-points (30-60 min) but not 24 h after treatment
Morphology of endolysosomal compartments [2]: morphological differences were apparent
Cytotoxicity / cell viability of compound by itself (HeLa cells): without inducing cytotoxicity
Protection against STx2 with additional oral tamoxifen after toxin (lethal STx2 toxicosis): A similar level of protection against STx2
Survival time versus vehicle, STx2 (lethal STx2 toxicosis): survived for significantly longer than those that received vehicle
Survival of STx2-treated mice (lethal STx2 toxicosis; ip): significantly improved the survival
Health until end of experiment, STx1-group (lethal STx1 toxicosis [5]): a subset of tamoxifen-treated mice remained healthy until the end of the experiment
Survival of STx1-treated mice (lethal STx1 toxicosis [5]; ip): significantly improved the survival

CC/C(=C(\c1ccc(O)cc1)c1ccc(OCCN(C)C)cc1)c1ccccc1 [4-hydroxytamoxifen, (Z)-4-(1-(4-(2-(dimethylamino)ethoxy)phenyl)-2-phenylbut-1-en-1-yl)phenol]
Protection against STx2-induced cell death relative to tamoxifen (STx2-induced cell death): A lower level of protection

[Mn+2] [manganese]
Early endosome-to-Golgi transport of STx1 (literature) [6]: blocks the early endosome-to-Golgi transport of STx1
Protection against lethal STx1-toxicosis (literature) (lethal STx1 toxicosis [7]): protects cells and mice against lethal STx1-toxicosis
Sensitivity of STx2 transport to manganese (literature) [8]: manganese-insensitive

CC/C(=C(\c1ccc(O)cc1)c1ccc(OCCNC)cc1)c1ccccc1 [endoxifen, (Z)-4-(1-(4-(2-(methylamino)ethoxy)phenyl)-2-phenylbut-1-en-1-yl)phenol]
Protection against STx2-induced cell death relative to tamoxifen (STx2-induced cell death): substantially weaker than tamoxifen or 4-hydroxytamoxifen

O=C(c1ccc(OCCN2CCCCC2)cc1)c1c(-c2ccc(O)cc2)sc2cc(O)ccc12 [raloxifene, (6-hydroxy-2-(4-hydroxyphenyl)benzo[b]thiophen-3-yl)(4-(2-(piperidin-1-yl)ethoxy)phenyl)methanone]
Protection against STx2-induced cell death relative to tamoxifen (STx2-induced cell death): provided as much protection as tamoxifen against STx2-induced cell death
Cytotoxicity / cell viability of compound by itself (HeLa cells): did not alter cell viability by themselves

CN(C)CCOc1ccc(/C(=C(/CCCl)c2ccccc2)c2ccccc2)cc1 [toremifene, (Z)-2-(4-(4-chloro-1,2-diphenylbut-1-en-1-yl)phenoxy)-N,N-dimethylethan-1-amine]
Transport of STx2B to the Golgi (data not shown) ([1]; 10 μM): blocked transport of STx2B to the Golgi
Protection against STx2-induced cell death relative to tamoxifen (STx2-induced cell death): provided as much protection as tamoxifen against STx2-induced cell death
Recruitment of Vps26 to early endosomes ([3]; 10 μM): increased Vps26 levels on early endosomes at 24 h
Endolysosomal pH at 30 min (data not shown) ([2]; 10 μM, 30 min): increased endolysosomal pH at 30 min
Cytotoxicity / cell viability of compound by itself (HeLa cells): did not alter cell viability by themselves
